# Data as given in publication PMC10712727, “Safety, Tolerability, and Pharmacokinetics of Senaparib, a Novel PARP1/2 Inhibitor, in Chinese Patients With Advanced Solid Tumors: A Phase I Trial” (The Oncologist, 2023).
# Experiment: Plasma pharmacokinetics after single-dose administration (HPLC-MS/MS)
# Type: in vivo, human
# Description: Dose escalation was conducted using a modified Fibonacci 3 + 3 method (Supplementary Fig. […] At a given dose level, each patient received a single dose of senaparib followed by a 7-day washout period. They then entered a continuous dosing period to confirm the safety and PK profile, in which they received senaparib QD from day 1 to day 21 of each 3-week cycle. Progression to the next higher dose required approval from the Data Safety Monitoring Committee (DSMC) upon review of the safety and PK data of the previous dose. A 50-mg twice-daily (BID) dosing group was added (planned enrollment, n = 6 patients) based on a DSMC review of the safety, PK, and efficacy analysis of the completed QD dose groups in the phase I clinical trial of senaparib dose escalation in Australia (NCT03507543), which commenced prior to the start of this trial. Safety was assessed by recording the incidence of dose-limiting toxicities (DLTs), and the incidence, nature, severity (graded per National Cancer Institute Common Terminology Criteria for Adverse Events version 4.03 [NCI CTCAE v4.03][18]), and relatedness of treatment-emergent adverse events (TEAEs). DLTs were predefined toxicities (Supplementary Table S2) recorded over the 7 days following the single-dose administration of senaparib and during the first treatment cycle (day 1-day 21) for each dose group in the dose-escalation period only. […] Senaparib PK parameters were derived from blood samples collected from patients after the single administration, and at regular intervals during the first cycle of the dose-escalation and dose-expansion periods. Plasma concentrations of senaparib were determined using high-performance liquid chromatography-tandem mass spectrometry. […] There was no formal sample size calculation based on statistical hypothesis testing for this study; the planned enrolment was approximately 30-60 patients across the dose-escalation and dose-expansion cohorts. The actual number in the dose-escalation cohort was adjusted based on the number of dose cohorts required for the modified Fibonacci dose-escalation design and the determined MTD. Definitions for all analysis populations (safety, DLT, PK, and efficacy [intent-to-treat, ITT]) are provided in Supplementary Table S2. No statistical tests were performed; patient demographic and baseline characteristics, safety/tolerability, PK parameters, and efficacy were evaluated descriptively. ORR and DCR and their 95% CIs were calculated for each group using the exact probability method. Kaplan-Meier statistics were used to estimate DOR and PFS, and their 95% CIs for each dose group separately. Dose linearity was explored based on the single-dose data of area under the time-concentration curve (AUC) and maximum plasma concentration (Cmax) using the power model (Y = α × dose β) for the dose range 2-80 mg on a log-transformed scale. The following criterion was used to determine whether dose proportionality was met: if the (2-sided) 90% CI for β was wholly contained within the interval (1 + log(0.5)/log(r), 1 + log(2)/log(r)), then dose proportionality was supported. Here, r was defined as the ratio of the highest to lowest dose. All data analyses were carried out using SAS EG7.1 or higher or (for PK parameters) WinNonlin 7.0 or higher.
smiles,measurement,setting,value
O=C(c1cc(Cn2c(=O)[nH]c(=O)c3c(F)cccc32)ccc1F)N1CCN(c2ncccn2)CC1 [Senaparib],"Elimination half-life, range","human, in vivo",5.1 to 24.3 h
same,"Mean apparent clearance, range across dose groups","human, in vivo",1.0 to 6.3 L/h
same,"Mean volume of distribution, range across dose groups","human, in vivo",15.5 to 88.7 L
same,"Median time to Cmax, range across dose groups","human, in vivo",0.5 to 6.0 h
same,"AUC0-inf, mean±SD","human, in vivo, 2 mg",1754.1 ng·h/mL
same,"AUC0-t, mean±SD","human, in vivo, 2 mg",1462.4 ng·h/mL
same,"CL/F, mean±SD","human, in vivo, 2 mg",1.1 L/h
same,"Cmax, mean±SD","human, in vivo, 2 mg",0.177 µg/mL
same,"Tmax, median (range)","human, in vivo, 2 mg",1.0 (1.0-1.0) h
same,"Vd/F, mean±SD","human, in vivo, 2 mg",21.3 L
same,"t½, median (range)","human, in vivo, 2 mg",13.0 (13.0-13.0) h
same,"λz, mean±SD","human, in vivo, 2 mg",5.3 h⁻¹
same,"AUC0-inf, mean±SD","human, in vivo, 5 mg",4107.2 ± 2303.2 ng·h/mL
same,"AUC0-t, mean±SD","human, in vivo, 5 mg",3912.7 ± 2180.7 ng·h/mL
same,"CL/F, mean±SD","human, in vivo, 5 mg",1.5 ± 0.7 L/h
same,"Cmax, mean±SD","human, in vivo, 5 mg",0.3787 ± 0.0761 µg/mL
same,"Tmax, median (range)","human, in vivo, 5 mg",1.9 (1.9-2.0) h
same,"Vd/F, mean±SD","human, in vivo, 5 mg",15.5 ± 3.5 L
same,"t½, median (range)","human, in vivo, 5 mg",7.7 (5.8-10.8) h
same,"λz, mean±SD","human, in vivo, 5 mg",5.2 ± 4.6 h⁻¹
same,"AUC0-inf, mean±SD","human, in vivo, 10 mg",9954.7 ± 1274.9 ng·h/mL
same,"AUC0-t, mean±SD","human, in vivo, 10 mg",9053.7 ± 887.5 ng·h/mL
same,"CL/F, mean±SD","human, in vivo, 10 mg",1.0 ± 0.1 L/h
same,"Cmax, mean±SD","human, in vivo, 10 mg",0.6067 ± 0.0935 µg/mL
same,"Tmax, median (range)","human, in vivo, 10 mg",4.0 (2.0-4.0) h
same,"Vd/F, mean±SD","human, in vivo, 10 mg",19.6 ± 0.8 L
same,"t½, median (range)","human, in vivo, 10 mg",14.4 (11.0-15.2) h
same,"λz, mean±SD","human, in vivo, 10 mg",5.2 ± 0.9 h⁻¹
same,"AUC0-inf, mean±SD","human, in vivo, 20 mg",18 955.2±3835.6 h*ng/mL
same,"AUC0-t, mean±SD","human, in vivo, 20 mg",16 945.0±11 287.2 h*ng/mL
same,"CL/F, mean±SD","human, in vivo, 20 mg",1.7 ± 1.4 L/h
same,"Cmax, mean±SD","human, in vivo, 20 mg",1.4533 ± 0.4081 µg/mL
same,"Tmax, median (range)","human, in vivo, 20 mg",1.9 (1.8-1.9) h
same,"Vd/F, mean±SD","human, in vivo, 20 mg",19.1 ± 4.5 L
same,"t½, median (range)","human, in vivo, 20 mg",11.2 (5.1-17.1) h
same,"λz, mean±SD","human, in vivo, 20 mg",3.5 ± 3.1 h⁻¹
same,"AUC0-inf, mean±SD","human, in vivo, 40 mg",16 904.8±4182.4 h*ng/mL
same,"AUC0-t, mean±SD","human, in vivo, 40 mg",16 428.2±3762.6 h*ng/mL
same,"CL/F, mean±SD","human, in vivo, 40 mg",2.5 ± 0.7 L/h
same,"Cmax, mean±SD","human, in vivo, 40 mg",1.68 ± 0.148 µg/mL
same,"Tmax, median (range)","human, in vivo, 40 mg",1.8 (1.0-1.8) h
same,"Vd/F, mean±SD","human, in vivo, 40 mg",30.9 ± 2.6 L
same,"t½, median (range)","human, in vivo, 40 mg",9.3 (7.3-10.2) h
same,"λz, mean±SD","human, in vivo, 40 mg",7.9 ± 1.4 h⁻¹
same,"AUC0-inf, mean±SD","human, in vivo, 50 mg",35 588.9±27 788.9 h*ng/mL
same,"AUC0-t, mean±SD","human, in vivo, 50 mg",12 067.8±5895.4 h*ng/mL
same,"CL/F, mean±SD","human, in vivo, 50 mg",2.4 ± 2.0 L/h
same,"Cmax, mean±SD","human, in vivo, 50 mg",1.56 ± 0.5643 µg/mL
same,"Tmax, median (range)","human, in vivo, 50 mg",0.7 (0.5-3.5) h
same,"Vd/F, mean±SD","human, in vivo, 50 mg",36.4 ± 8.6 L
same,"t½, median (range)","human, in vivo, 50 mg",16.5 (5.7-24.3) h
same,"λz, mean±SD","human, in vivo, 50 mg",3.3 ± 2.9 h⁻¹
same,"AUC0-inf, mean±SD","human, in vivo, 60 mg",25 575.8±10 554.7 h*ng/mL
same,"AUC0-t, mean±SD","human, in vivo, 60 mg",24 929.7±9991.9 h*ng/mL
same,"CL/F, mean±SD","human, in vivo, 60 mg",2.6 ± 0.9 L/h
same,"Cmax, mean±SD","human, in vivo, 60 mg",2.4767 ± 0.3427 µg/mL
same,"Tmax, median (range)","human, in vivo, 60 mg",2.0 (2.0-3.6) h
same,"Vd/F, mean±SD","human, in vivo, 60 mg",32.0 ± 8.8 L
same,"t½, median (range)","human, in vivo, 60 mg",8.5 (7.9-9.9) h
same,"λz, mean±SD","human, in vivo, 60 mg",8.0 ± 0.9 h⁻¹
same,"AUC0-inf, mean±SD","human, in vivo, 80 mg",76 255.9±33 943.0 h*ng/mL
same,"AUC0-t, mean±SD","human, in vivo, 80 mg",62 385.0±22 693.1 h*ng/mL
same,"CL/F, mean±SD","human, in vivo, 80 mg",1.2 ± 0.6 L/h
same,"Cmax, mean±SD","human, in vivo, 80 mg",3.86 ± 1.475 µg/mL
same,"Tmax, median (range)","human, in vivo, 80 mg",2.0 (2.0-2.0) h
same,"Vd/F, mean±SD","human, in vivo, 80 mg",30.6 ± 14.5 L
same,"t½, median (range)","human, in vivo, 80 mg",17.0 (13.3-23.7) h
same,"λz, mean±SD","human, in vivo, 80 mg",4.1 ± 1.1 h⁻¹
same,"AUC0-inf, mean±SD","human, in vivo, 100 mg",40 487.6±20 226.7 h*ng/mL
same,"AUC0-t, mean±SD","human, in vivo, 100 mg",38 505.2±18 191.9 h*ng/mL
same,"CL/F, mean±SD","human, in vivo, 100 mg",3.1 ± 1.6 L/h
same,"Cmax, mean±SD","human, in vivo, 100 mg",3.425 ± 1.5161 µg/mL
same,"Tmax, median (range)","human, in vivo, 100 mg",2.0 (1.0-4.0) h
same,"Vd/F, mean±SD","human, in vivo, 100 mg",39.6 ± 1.1 L
same,"t½, median (range)","human, in vivo, 100 mg",10.4 (6.6-12.9) h
same,"λz, mean±SD","human, in vivo, 100 mg",5.7 ± 3.3 h⁻¹
same,"AUC0-inf, mean±SD","human, in vivo, 120 mg",68 650.9±89 085.5 h*ng/mL
same,"AUC0-t, mean±SD","human, in vivo, 120 mg",55 962.4±66 684.5 h*ng/mL
same,"CL/F, mean±SD","human, in vivo, 120 mg",6.3 ± 5.8 L/h
same,"Cmax, mean±SD","human, in vivo, 120 mg",3.3483 ± 2.8288 µg/mL
same,"Tmax, median (range)","human, in vivo, 120 mg",1.9 (1.8-6.0) h
same,"Vd/F, mean±SD","human, in vivo, 120 mg",88.7 ± 86.2 L
same,"t½, median (range)","human, in vivo, 120 mg",11.3 (6.3-23.8) h
same,"λz, mean±SD","human, in vivo, 120 mg",3.8 ± 2.9 h⁻¹
same,Senaparib exposure (Cmax and AUC) versus dose,"single dose, 80-120 mg",appeared to plateau
